In patent publication US20230285307A1, “Dispersible Tablet Formulations Comprising Dolutegravir” (ViiV Healthcare Company, priority 2020, published 2023):

Tests used:
[1] = Dolutegravir solubility in the presence of monovalent and divalent ions; type: physicochemical; details: thermodynamic from solid, 20 mg in 12 ml
Procedure: Solubility was determined by dissolving 20 mg of dolutegravir into 12 ml of water containing the specified ion (see Table 1) at a concentration of 500 ppm.

[2] = Solubility of dolutegravir in types of potable water (FIG. 1); type: physicochemical; details: water with no ions present (purified water) vs other types of potable water
Excerpt: The solubility of dolutegravir is affected by the use of different types of potable water, for example purified water, tap water and different brands of bottled water (see FIG. 1). The reason for this difference in solubility is believed to be due to the presence of ions typically found in water. When water with no ions present (purified water) is used to disperse dolutegravir, the solubility of dolutegravir is increased and a significant bitter taste may be observed.

For `C[C@@H]1CCO[C@H]2Cn3cc(C(=O)NCc4ccc(F)cc4F)c(=O)c(O)c3C(=O)N12` [Dolutegravir, (4RX,12aS)-N-[(2,4-difluorophenyl)methyl]-7-hydroxy-4-methyl-6,8-dioxo-3,4,12,12a-tetrahydro-2H-pyrido[5,6]pyrazino[2,6-b][1,3]oxazine-9-carboxamide], the solubility ([1]; aqueous buffer, water containing calcium ion 500 ppm) was 30 µg/mL, the solubility ([1]; aqueous buffer, water containing magnesium ion 500 ppm) was 210 µg/mL and the solubility ([1]; aqueous buffer, water containing potassium ion 500 ppm) was 780 µg/mL. For the same compound, the solubility ([1]; aqueous buffer, water containing sodium ion 500 ppm) was 460 µg/mL, the solubility ([1]; no ion (purified water)) was 1200 µg/mL and the solubility of dolutegravir [2] was “increased”.
